Measurements: patent publication US6034069A, “3-'N-modified 6-O-substituted erythromycin ketolide derivatives having antibacterial activity” (priority 1998, dated 2000)

tested on: Escherichia coli DC-2; assay: in vitro antibacterial activity, agar dilution MIC; assay type: cell-based; details: Organism code SS; BHI agar, 35-37° C., 20 to 24 hours
Description: (§1) Representative compounds of the present invention were assayed in vitro for antibacterial activity as follows: Twelve petri dishes containing successive aqueous dilutions of the test compound mixed with 10 mL of sterilized Brain Heart Infusion (BHI) agar (Difco 0418-01-5) were prepared. Each plate was inoculated with 1:100 (or 1:10 for slow-growing strains, such as Micrococcus and Streptococcus) dilutions of up to 32 different microorganisms, using a Steers replicator block. […] In addition, a control plate, using BHI agar containing no test compound, was prepared and incubated at the beginning and end of each test.
(§2) An additional plate containing a compound having known susceptibility patterns for the organisms being tested and belonging to the same antibiotic class as the test compound was also prepared and incubated as a further control, as well as to provide test-to-test comparability.
(§3) After incubation, each plate was visually inspected. The minimum inhibitory concentration (MIC) was defined as the lowest concentration of drug yielding no growth, a slight haze, or sparsely isolated colonies on the inoculum spot as compared to the growth control.

SMILES | minimum inhibitory concentration (MIC)
CC[C@H]1OC(=O)[C@H](C)C(=O)[C@H](C)[C@@H](O[C@@H]2O[C@H](C)C[C@H](N(C)CCF)[C@H]2O)[C@](C)(OCC=Cc2cnc3ccccc3c2)C[C@@H](C)C(=O)[C@H](C)[C@H]2NC(=O)O[C@@]21C [Example 7] | > 100

tested on: Streptococcus Pheumoniae 5979; assay: in vitro antibacterial activity, agar dilution MIC; assay type: cell-based; details: Organism code ZZ; BHI agar, 35-37° C., 20 to 24 hours
Description: as §1, §2, §3

SMILES | minimum inhibitory concentration (MIC)
C=C(CN(C)[C@H]1C[C@@H](C)O[C@@H](O[C@@H]2[C@@H](C)C(=O)[C@@H](C)C(=O)O[C@H](CC)[C@@]3(C)OC(=O)N[C@@H]3[C@@H](C)C(=O)[C@H](C)C[C@@]2(C)OCC=Cc2cnc3ccccc3c2)[C@@H]1O)C(=O)OC [Example 18] | 128
CC[C@H]1OC(=O)[C@H](C)C(=O)[C@H](C)[C@@H](O[C@@H]2O[C@H](C)C[C@H](N(C)CC3CC3)[C@H]2O)[C@](C)(OCC=Cc2cnc3ccccc3c2)C[C@@H](C)C(=O)[C@H](C)[C@H]2NC(=O)O[C@@]21C [Example 15] | > 128
CC[C@H]1OC(=O)[C@H](C)C(=O)[C@H](C)[C@@H](O[C@@H]2O[C@H](C)C[C@H](N(C)Cc3cccnc3)[C@H]2O)[C@](C)(OCC=Cc2cnc3ccccc3c2)C[C@@H](C)C(=O)[C@H](C)[C@H]2NC(=O)O[C@@]21C [Example 14] | > 128
C=C(C)CN(C)[C@H]1C[C@@H](C)O[C@@H](O[C@@H]2[C@@H](C)C(=O)[C@@H](C)C(=O)O[C@H](CC)[C@@]3(C)OC(=O)N[C@@H]3[C@@H](C)C(=O)[C@H](C)C[C@@]2(C)OCC=Cc2cnc3ccccc3c2)[C@@H]1O [Example 19] | 128
CCCN(C)[C@H]1C[C@@H](C)O[C@@H](O[C@@H]2[C@@H](C)C(=O)[C@@H](C)C(=O)O[C@H](CC)[C@@]3(C)OC(=O)N[C@@H]3[C@@H](C)C(=O)[C@H](C)C[C@@]2(C)OCC=Cc2cnc3ccccc3c2)[C@@H]1O [Example 16] | 128
CC[C@H]1OC(=O)[C@H](C)C(=O)[C@H](C)[C@@H](O[C@@H]2O[C@H](C)C[C@H](N(C)CC#N)[C@H]2O)[C@](C)(OCC=Cc2cnc3ccccc3c2)C[C@@H](C)C(=O)[C@H](C)[C@H]2NC(=O)O[C@@]21C [Example 9] | 128
